In series [1] the target is CYP 1A2 (Homo sapiens (Human), UniProt P05177). Nature of the series: in vitro. As for the experimental part:
(§1) CYP450 inhibition profiling provides valuable information regarding any possible drug-drug interactions for a test compound.
(§2) All experiments were performed using P450-Glo™ Assay Systems (Promega) in accordance with the manufacturer's protocols. The P450-Glo™ Assays provide a luminescent readout-based method for measuring cytochrome P450 activity. A conventional cytochrome P450 reaction was performed by incubating the cytochrome P450 and a luminogenic cytochrome P450 substrate. The substrates in the P450-Glo™ assays are derivatives of beetle luciferin. The derivatives themselves are not substrates for luciferase but are converted by cytochrome P450s to luciferin, which in turn reacts with luciferase to produce light. The amount of light produced was directly proportional to cytochrome P450 activity. All test points were performed in quadruplicates. Control membranes (without CYPs) represented the Negative control (baseline).
(§3) The following reference compounds were used to assess CYP inhibition: […]

The target in series [2] is CYP 2C19 (Homo sapiens (Human), UniProt P33261). Nature of the series: in vitro. As for the experimental part:
as §1, §2, §3

For series [3], the target named is CYP 3A4 (Homo sapiens (Human), UniProt P08684). Nature of the series: in vitro. To be noted: % Mean. As for the experimental part:
as §1, §2, §3

The target of series [4] is FLAG-Parkin C431S (Homo sapiens (Human), UniProt O60260, C431S). Nature of the series: Ub-charging of FLAG-Parkin C431S (western blot). The class given is cell-based. To be noted: 5 μM or 1 μM, 2 h before 3.5 μM CCCP. As for the experimental part:
Another measure of Parkin activation is Ub charging of Parkin. Parkin receives Ub from an E2 enzyme to transfer it to a substrate protein. The Ub is bound by Parkin C431 in an unstable thioester bond. A serine substitution of this amino acid (C431S) leads to a stable oxyester bond. The bound Ub can then be visualized as a band shift in Western blot experiments. HeLa 3×FLAG-Parkin C431S cells were seeded in 12-well plates and allowed to attach overnight. Cells were treated with 5 μM (top panels) or 1 μM (bottom panels) of Compounds 1, 2, 3, 4, and 31 2 h before adding CCCP for another 2 h. 10 μM CCCP was added to positive control (PC) wells whereas all other samples received a low dose concentration of 3.5 μM. Cells were harvested in boiling hot SDS lysis buffer and protein concentration was determined by BCA. Samples were split and left either untreated or were treated with NaOH as indicated. Samples were run on an 8-16% Tris-Glycine gel, blotted onto membranes and probed with antibodies against Flag and pS65-Ub. GAPDH served as a loading control. Band shift indicates Parkin binding to Ubiquitin, which is cleavable with NaOH.
Cells were harvested in RIPA buffer or NP-40 lysis buffer containing protease and phosphatase inhibitors (Complete and PhosStop, Roche Applied Science) with the exception of Parkin Ub charging experiments where preheated (95° C.) SDS lysis buffer (50 mM Tris pH 7.6, 150 mM NaCl, 1% SDS) was used. Concentration of cell lysates was determined with bicinchoninic acid (Pierce Biotechnology). For Parkin Ub charging experiments, aliquots of lysates were treated with […] for 1 h at 37° C. pH was neutralized with equinormal HCl.
Protein was subjected to SDS-PAGE using 4-20% or 8-16% Tris-Glycine gels (Invitrogen) and transferred onto polyvinylidene fluoride (PVDF) (Millipore). Membranes were incubated with primary antibodies overnight at 4° C. followed by HRP-conjugated secondary antibodies (1:10,000; Jackson ImmunoResearch Laboratories). Primary antibodies used: beta III tubulin (rabbit, 1:1000, CST, #5568, CST), FLAG (mouse, 1:250,000, Sigma, F3165), GAPDH (mouse, 1:100,000-500,000, Meridian Life science, H86504M), GST (1:10,000, Sigma, G7781), MFN1 (mouse, 1:5,000, Abcam, ab57602), MFN2 (mouse, 1:5,000, Abcam, ab56889), Parkin (mouse, 1:2,000, Cell Signaling, #4211), pSer65-Ub (rabbit, 1:15,000, in-house (Fiesel et al., EMBO Reports (2015) 16:1114-30; Fiesel et al., (2015) Autophagy 11:2125-2126)), TOM70 (rabbit, 1:5,000, Proteintech, 14528-1-AP), UBE2L3 (rabbit, 1:10,000, ProteinTech, 14415-1-AP), VDAC1 (mouse, 1:5,000, Abcam, ab14734), vinculin (mouse, 1:100,000, Sigma, V9131).
HeLa 3×FLAG-Parkin C431S cells were seeded in 6-well plates and allowed to attach overnight. Cells were treated with […] of compounds 5, 21-28, 32, 33, or 43-46 2 h before adding CCCP for another 2 h. 10 VM CCCP was added to positive control (PC) wells, 3.5 μM CCCP to compound (+) and negative control (NC) wells. […] Cells were harvested in boiling hot SDS lysis buffer and protein concentration was determined by BCA. Samples were split and left either untreated or were treated with NaOH as indicated. Samples were run on an 8-16% Tris-Glycine gel, blotted onto membranes and probed with antibodies against Flag. Vinculin served as a loading control. Band shift indicates Parkin binding to Ubiquitin, which is cleavable with NaOH (FIG. 21).
(In general: Immunoblotting shows a protein as a band on a membrane.)

In series [5] the test system is HeLa cells. Nature of the series: Mitochondrial membrane potential (JC-10 assay). The class given is cell-based, human. To be noted: 5 μM, compared to DMSO control. As for the experimental part: In order to exclude compounds that diminish the mitochondrial membrane potential, a JC-10 assay was used. HeLa cells were plated in 384-well plates and treated with different doses of CCCP or with 5 μM of Compounds 1, 2, 3, 4, and 31 as indicated for 2 h. The JC-10 dye was added to the live cells and cells are stained for 45 minutes. The plates were then measured with a fluorescent plate reader. JC-10 is a mitochondrial dye that emits red fluorescence in the presence of mitochondrial membrane potential. The fluorescence will change to green in the absence of mitochondrial membrane potential. […] Shown are average values of 3 independent experiments. Statistical analysis was performed by one-way ANOVA with Tukey's post-hoc test. ***, p<0.0005.
Mitochondrial depolarization was assessed using a JC10 assay kit (Sigma, MAK159). HeLa Parkin cells were seeded with […] in 20 μL volume into 384-well plates with clear bottom. The following day 5 μL of CCCP or compounds were added as 5× solutions. Equal volume of DMSO served as a negative control. Cells were incubated for 4 h before 12.5 μL of JC10 dye diluted in buffer A was added to the wells. One hour later the reaction was stopped with 12.5 μL of buffer B and the plate was measured immediately on a Spectramax M5 plate reader (Molecular devices) with bottom read using dual fluorescence (green: Ex 485 nm, Em 538 nm, cut-off at 515 nm; red: Ex 544 nm, Em 590 nm, cut-off at 570 nm). Mitochondrial depolarization was assessed by building the green to red ratio.

In series [6] the target is CYP 2D6 (Homo sapiens (Human), UniProt P10635). Description: in vitro. As to conditions: Inhibition. As for the experimental part: as §1, §2, §3
Chain of CYP 2D6 (P10635 whole entry): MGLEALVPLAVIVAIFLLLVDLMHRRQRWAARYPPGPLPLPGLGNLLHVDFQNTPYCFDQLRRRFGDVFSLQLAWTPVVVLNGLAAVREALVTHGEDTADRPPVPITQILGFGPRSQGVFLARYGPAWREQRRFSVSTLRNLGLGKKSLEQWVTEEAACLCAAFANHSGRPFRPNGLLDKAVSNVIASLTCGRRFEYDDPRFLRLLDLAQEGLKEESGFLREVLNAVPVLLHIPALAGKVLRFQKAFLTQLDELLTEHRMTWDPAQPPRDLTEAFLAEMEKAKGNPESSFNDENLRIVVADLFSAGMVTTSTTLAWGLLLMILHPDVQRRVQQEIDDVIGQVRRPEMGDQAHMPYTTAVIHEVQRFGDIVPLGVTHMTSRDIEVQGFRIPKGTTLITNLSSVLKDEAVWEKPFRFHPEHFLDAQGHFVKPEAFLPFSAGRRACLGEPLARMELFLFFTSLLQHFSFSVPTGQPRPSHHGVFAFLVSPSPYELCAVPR

For orientation: inhibition means the relative decrease from the control value, in per cent.

Chain of CYP 1A2 (P05177 whole entry): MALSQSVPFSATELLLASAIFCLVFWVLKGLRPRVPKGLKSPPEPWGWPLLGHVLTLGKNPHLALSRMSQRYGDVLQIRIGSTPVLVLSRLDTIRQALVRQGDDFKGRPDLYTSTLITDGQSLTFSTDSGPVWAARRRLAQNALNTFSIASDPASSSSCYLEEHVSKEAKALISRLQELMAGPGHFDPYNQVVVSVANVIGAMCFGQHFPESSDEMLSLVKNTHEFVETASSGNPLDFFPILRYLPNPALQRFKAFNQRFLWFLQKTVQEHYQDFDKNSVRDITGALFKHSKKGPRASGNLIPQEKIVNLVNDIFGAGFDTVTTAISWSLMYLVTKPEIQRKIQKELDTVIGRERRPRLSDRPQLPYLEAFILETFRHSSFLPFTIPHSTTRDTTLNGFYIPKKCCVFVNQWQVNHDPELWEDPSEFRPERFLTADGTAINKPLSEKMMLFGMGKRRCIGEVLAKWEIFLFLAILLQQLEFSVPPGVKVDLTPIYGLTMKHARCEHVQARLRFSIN
Chain of CYP 2C19 (P33261 whole entry): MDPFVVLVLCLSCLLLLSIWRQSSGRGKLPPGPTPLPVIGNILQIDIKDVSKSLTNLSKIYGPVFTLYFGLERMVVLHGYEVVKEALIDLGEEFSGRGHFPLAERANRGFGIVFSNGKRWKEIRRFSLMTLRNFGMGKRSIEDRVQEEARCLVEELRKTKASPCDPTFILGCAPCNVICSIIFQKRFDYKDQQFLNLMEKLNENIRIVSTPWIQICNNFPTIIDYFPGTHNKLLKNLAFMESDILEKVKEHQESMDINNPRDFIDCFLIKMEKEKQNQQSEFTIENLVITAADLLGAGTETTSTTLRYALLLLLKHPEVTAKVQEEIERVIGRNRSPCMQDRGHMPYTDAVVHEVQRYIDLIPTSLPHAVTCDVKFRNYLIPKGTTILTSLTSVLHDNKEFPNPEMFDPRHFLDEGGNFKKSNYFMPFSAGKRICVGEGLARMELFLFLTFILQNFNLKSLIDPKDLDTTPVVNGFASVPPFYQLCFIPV
Chain of CYP 3A4 (P08684 whole entry): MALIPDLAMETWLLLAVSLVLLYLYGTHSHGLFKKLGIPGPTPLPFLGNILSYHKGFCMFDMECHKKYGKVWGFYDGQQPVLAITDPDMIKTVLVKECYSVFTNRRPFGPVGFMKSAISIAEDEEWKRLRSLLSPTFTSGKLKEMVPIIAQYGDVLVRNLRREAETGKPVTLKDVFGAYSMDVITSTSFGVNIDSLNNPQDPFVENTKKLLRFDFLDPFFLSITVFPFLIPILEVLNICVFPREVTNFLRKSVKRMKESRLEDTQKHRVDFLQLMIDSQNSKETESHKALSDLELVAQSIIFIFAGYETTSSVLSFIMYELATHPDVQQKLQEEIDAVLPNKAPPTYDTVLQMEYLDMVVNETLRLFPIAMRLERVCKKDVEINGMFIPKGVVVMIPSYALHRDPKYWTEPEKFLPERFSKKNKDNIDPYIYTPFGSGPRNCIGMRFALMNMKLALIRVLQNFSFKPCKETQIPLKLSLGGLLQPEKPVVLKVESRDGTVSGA

Regarding `O=C(Cn1cnc2c1CCCC2)Nc1ccc(-c2ccccc2)cc1` [Compound 1], the inhibition at 10 µM in series [1] (% (individual replicates)) is 73.2%; in series [1] (% Mean) it was 69%; in series [2] (% Mean) it was 9.4%; in series [3] it was -24.4%; in series [6] (% (individual replicates)) it was 18.5%; in series [6] (% Mean), 17%. Besides, in series [4], the “Ub-charging of FLAG-Parkin C431S (WB)” value was “enhanced Ub-charging”. Further, the “effect on JC-10 (mitochondrial depolarization)” value (shortened to “effect”) in series [5] is listed as “did not show an effect”.

In the case of `O=C(Cn1ccnc1-c1ccccn1)Nc1ccc(-c2ccccc2)cc1` [Compound 4], the inhibition at 10 µM was 5.6% in series [1] (% Mean), -10.3% in series [2] (% Mean), 1.4% in series [3] and 18.4% in series [6] (% Mean). The “Ub-charging of FLAG-Parkin C431S (WB)” value in series [4] is reported as “enhanced Ub-charging”. Also, in series [5], the “effect” value is listed as “did not show an effect”.

Regarding `CC(C)(C)Sc1ccc(NC(=O)Cn2ccnc2)cc1` [Compound 3], the inhibition at 10 µM in series [1] (% (individual replicates)) was 98.6%; in series [1] (% Mean) it was 97.6%; in series [2] (% (individual replicates)), 97.4%; in series [2] (% Mean) it was 92.5%; in series [3], 88.3%; in series [6] (% (individual replicates)) it was 98.9%. Also, the inhibition at 10 µM in series [6] (% Mean) was determined as 99.7%. The “Ub-charging of FLAG-Parkin C431S (WB)” value in series [4] is “enhanced Ub-charging”. Besides, the “effect” value in series [5] is recorded as “did not show an effect”.

On to `CC(C)c1nccn1CC(=O)Nc1ccc(-c2ccccc2)cc1` [Compound 2], for which the inhibition at 10 µM is 49.3% in series [1] (% (individual replicates)); 40.4% in series [1] (% Mean); -9.5% in series [2] (% Mean); -14.3% in series [3]; 17.3% in series [6] (% Mean). In addition, the “Ub-charging of FLAG-Parkin C431S (WB)” value in series [4] is recorded as “enhanced Ub-charging”. For the same compound, in series [5], the “effect” value was “did not show an effect”.

With `Cc1nc2c(c(N3CCCN(Cc4ccccc4)CC3)n1)CCCC2` [Compound 31], the inhibition at 10 µM in series [1] (% Mean) is -0.7%; in series [2] (% (individual replicates)), 14%; in series [2] (% Mean) it was 16.2%; in series [3], -16.1%; in series [6] (% Mean) it was 60.6%. Also, in series [4], the “Ub-charging of FLAG-Parkin C431S (WB)” value is on record as “enhanced Ub-charging”. Besides, the “effect” value in series [5] is reported as “significantly increased depolarization of mitochondria”.

The values are drawn from US11401255B2, “Small molecule activators of Parkin enzyme function” (Mayo Foundation for Medical Education and Research, priority 2016, dated 2022).
